Data taken from US5232926A, “Morphinane-skeletoned hydrazone derivatives” (priority 1992, dated 1993).

Experiments:
Sensitivity to light = type: physicochemical; conditions: effect of light
[1] = Hot plate test (analgetic activity); type: in vivo; conditions: sc.
[2] = Tail Flick test (analgetic activity); type: in vivo; conditions: read-out: Tail Flick ED50

With COc1ccc2c3c1O[C@H]1C(=NNc4ccccc4)C=C[C@@]4(O)[C@@H](C2)N(C)CC[C@]314 [14-OH-codeinone phenylhydrazone] the sensitivity to light (Sensitivity to light) was “sensitive to light, it turns to yellow due to the effect of light”.
Compound COc1ccc2c3c1O[C@H]1C(=NNc4ccccc4)CC[C@H]4[C@@H](C2)N(C)CC[C@]314 [Dihydrocodeinone phenylhydrazone] has an ED50 [1] of 2.4 mg/kg and an ED50 ([2]; sc.) of 2.3 mg/kg.
For COc1ccc2c3c1O[C@H]1C(=NNC(N)=O)CC[C@H]4[C@@H](C2)N(C)CC[C@]314 [Dihydrocodeinone semicarbazone, Dihydrocodeinonesemicarbazone], the ED50 [1] was 0.38 mg/kg and the ED50 ([2]; sc.) was 0.35 mg/kg.
Compound COc1ccc2c3c1O[C@H]1C(=NNC(N)=S)CC[C@H]4[C@@H](C2)N(C)CC[C@]314 [Dihydrocodeinone thiosemicarbazone] has an ED50 [1] of 1.7 mg/kg and an ED50 ([2]; sc.) of 0.6 mg/kg.
For CN1CC[C@]23c4c5ccc(O)c4O[C@H]2C(=NNc2ccc([N+](=O)[O-])cc2[N+](=O)[O-])CC[C@H]3[C@H]1C5 [Dihydromorphinone dinitrophenylhydrazone, Dihydromorphinone-2,4-dinitrophenyl hydrazone], the ED50 [1] was 0.27 mg/kg and the ED50 ([2]; sc.) was 0.18 mg/kg.
Work on CN1CC[C@]23c4c5ccc(O)c4O[C@H]2C(=NNC(N)=O)CC[C@H]3[C@H]1C5 [Dihydromorphinone semicarbazone] yielded an ED50 [1] of 0.085 mg/kg and an ED50 ([2]; sc.) of 0.13 mg/kg.
In the case of CN1CC[C@]23c4c5ccc(O)c4O[C@H]2[C@@H](O)C=C[C@H]3[C@H]1C5 [Morphine, reference compound], the “Hot plate test ED50” value [1] is reported as 3.6 mg/kg and the ED50 ([2]; sc) is reported as 5 mg/kg.
For COc1ccc2c3c1O[C@H]1C(=NNc4ccccc4)CC[C@@]4(O)[C@@H](C2)N(C)CC[C@]314 [Oxycodone phenylhydrazone, 14-OH-dihydrocodeinone phenylhydrazone], the ED50 [1] was 0.8 mg/kg and the ED50 ([2]; sc.) was 1.2 mg/kg.
Work on COc1ccc2c3c1O[C@H]1C(=NNC(N)=O)CC[C@@]4(O)[C@@H](C2)N(C)CC[C@]314 [Oxycodone semicarbazone, 14-OH-dihydrocodeinonesemicarbazone] yielded an ED50 [1] of 0.58 mg/kg and an ED50 ([2]; sc.) of 0.45 mg/kg.
CN1CC[C@]23c4c5ccc(O)c4O[C@H]2C(=NNc2ccc([N+](=O)[O-])cc2[N+](=O)[O-])CC[C@@]3(O)[C@H]1C5 [Oxymorphone dinitrophenylhydrazone, 14-OH-dihydromorphinone-2,4-dinitrophenyl hydrazone] showed an ED50 [1] of 0.37 mg/kg and an ED50 ([2]; sc.) of 0.27 mg/kg.
Work on CN1CC[C@]23c4c5ccc(O)c4O[C@H]2C(=NNC(N)=O)CC[C@@]3(O)[C@H]1C5 [Oxymorphone semicarbazone, 14-OH-dihydromorphinone semicarbazone] yielded an ED50 [1] of 0.9 mg/kg and an ED50 ([2]; sc.) of 0.9 mg/kg.
